Each structure is given as a SMILES string. The source made the active and inactive calls. No cut-off for these calls is given here. Some results are limits rather than exact numbers.

One assay relates to L02. Briefly: Antiproliferative activity against human LO2 cells after 72 hrs by CCK-8 assay. To be noted: L02, 72 h. In kind it is cell-based. For orientation: Tetrazolium dyes change colour on reduction, which living cells bring about.
The next assay relates to Bel-7402. Briefly: Antiproliferative activity against human Bel7402 cells after 72 hrs by CCK-8 assay. In kind it is functional, cell-based. To be noted: Bel-7402, 72 h.
Assay [1] concerns Bel7402/5-FU. Briefly: Antiproliferative activity against human Bel7402/5-FU cells after 72 hrs by CCK-8 assay. In kind it is functional, cell-based.
For assay [2], the system named is Bel7402/5-FU. Briefly: Cell cycle arrest in human Bel7402/5-FU cells assessed as accumulation at G1 phase at 0.1 uM after 48 hrs by propidium iodide staining based flow cytometry (reference value: 52.21%). In kind it is functional. In general terms: A flow cytometer gives signals particle by particle.
Assay [3] concerns Bel7402/5-FU. Briefly: Induction of apoptosis in human Bel7402/5-FU cells assessed as late apoptotic cells at 0.1 uM after 48 hrs by Annexin V-APC/7-AAD staining based flow cytometry (reference value: 3%). In kind it is functional.
In assay [4] the test system is Bel7402/5-FU. Briefly: Effect on cyclinB1 expression in human Bel7402/5-FU cells assessed as ratio of cyclinB1 to beta-actin level at 0.1 uM after 48 hrs by Western blot analysis (reference value: 0.53). In kind it is functional.
The test system of assay [5] is Bel7402/5-FU. Briefly: Antimigratory activity in human Bel7402/5-FU cells at 0.1 uM after 24 hrs by wound healing assay. In kind it is functional, cell-based.
Assay [6] concerns Bel7402/5-FU. Briefly: Effect on iNOS expression in human Bel7402/5-FU cells assessed as ratio of iNOS to beta-actin level at 0.1 uM after 48 hrs by Western blot analysis (reference value: 0.13). In kind it is functional.
In assay [7] the test system is Bel7402/5-FU. Briefly: Induction of apoptosis in human Bel7402/5-FU cells assessed as ratio of cleaved PARP to beta-actin level at 0.1 uM after 48 hrs by Western blot analysis (reference value: 0.2). In kind it is functional. For orientation: Immunoblotting shows a protein as a band on a membrane.
A short description of assay [8]: Resistant factor, ratio of IC50 for human Bel7402/5-FU cells to IC50 for human Bel7402 cells. In kind it is functional.
For assay [9], the system named is Bel7402/5-FU. Briefly: Effect on COX2 expression in human Bel7402/5-FU cells assessed as ratio of COX2 to beta-actin level at 0.1 uM after 48 hrs by Western blot analysis (reference value: 0.36). In kind it is functional.
The subject of assay [10] is Bel7402/5-FU. Briefly: Induction of apoptosis in human Bel7402/5-FU cells assessed as reduction in cell number at 0.1 uM after 24 hrs by Hoechst 33342 staining based fluorescent microscopic method. In kind it is functional.
For assay [11], the system named is Bel7402/5-FU. Briefly: Induction of apoptosis in human Bel7402/5-FU cells assessed as early apoptotic cells at 0.1 uM after 48 hrs by Annexin V-APC/7-AAD staining based flow cytometry (reference value: 5.24%). In kind it is functional.
Assay [12] deals with Bel7402/5-FU. Briefly: Effect on E-cadherin expression in human Bel7402/5-FU cells assessed as ratio of E-cadherin to beta-actin level at 0.1 uM after 48 hrs by Western blot analysis (reference value: 0.2). In kind it is functional.
Assay [13] relates to Bel7402/5-FU. Briefly: Induction of apoptosis in human Bel7402/5-FU cells assessed as condensed nuclei at 0.1 uM after 24 hrs by Hoechst 33342 staining based fluorescent microscopic method. In kind it is functional, cell-based.
Assay [14] deals with Bel7402/5-FU. Briefly: Induction of microtubule disruption in human Bel7402/5-FU cells at 0.1 uM after 24 to 48 hrs by DAPI staining based immunofluorescence microscopic method. In kind it is functional, cell-based.
The test system of assay [15] is Bel7402/5-FU. Briefly: Cell cycle arrest in human Bel7402/5-FU cells assessed as accumulation at S phase at 0.1 uM after 48 hrs by propidium iodide staining based flow cytometry (reference value: 12.62%). In kind it is functional.
The test system of assay [16] is Bel7402/5-FU. Briefly: Induction of apoptosis in human Bel7402/5-FU cells assessed as ratio of cleaved caspase-3 to beta-actin level at 0.1 uM after 48 hrs by Western blot analysis (reference value: 0.19). In kind it is functional.
The test system of assay [17] is Bel7402/5-FU. Briefly: Cell cycle arrest in human Bel7402/5-FU cells assessed as accumulation at G2 phase at 0.1 uM after 48 hrs by propidium iodide staining based flow cytometry (reference value: 35.16%). In kind it is functional.
For assay [18], the target named is RAC-alpha serine/threonine-protein kinase (Homo sapiens) (UniProt P31749). Briefly: Effect on AKT phosphorylation in human Bel7402/5-FU cells assessed as ratio of phosphorylated AKT to beta-actin level at 0.1 uM after 48 hrs by Western blot analysis (reference value: 0.39). In kind it is cell-based.
Sequence of RAC-alpha serine/threonine-protein kinase (Homo sapiens) (P31749 whole entry): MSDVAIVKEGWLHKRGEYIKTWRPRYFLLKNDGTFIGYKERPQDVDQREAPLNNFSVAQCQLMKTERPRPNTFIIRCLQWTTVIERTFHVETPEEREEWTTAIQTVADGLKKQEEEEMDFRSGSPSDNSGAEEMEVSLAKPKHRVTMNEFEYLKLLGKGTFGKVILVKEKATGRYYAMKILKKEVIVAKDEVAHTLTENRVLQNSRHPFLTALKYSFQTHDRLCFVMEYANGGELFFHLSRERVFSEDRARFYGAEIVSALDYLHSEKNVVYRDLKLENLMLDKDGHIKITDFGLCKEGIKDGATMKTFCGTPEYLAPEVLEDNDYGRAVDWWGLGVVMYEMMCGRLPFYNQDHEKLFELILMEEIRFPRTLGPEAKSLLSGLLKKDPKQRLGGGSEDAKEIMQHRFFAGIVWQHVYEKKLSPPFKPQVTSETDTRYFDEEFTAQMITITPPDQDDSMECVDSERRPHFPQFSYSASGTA
Assay [19] deals with Bel7402/5-FU. Briefly: Induction of apoptosis in human Bel7402/5-FU cells assessed as live cells at 0.1 uM after 48 hrs by Annexin V-APC/7-AAD staining based flow cytometry (reference value: 91.08%). In kind it is functional.
The subject of assay [20] is Bel7402/5-FU. Briefly: Induction of apoptosis in human Bel7402/5-FU cells assessed as ratio of cleaved caspase-9 to beta-actin level at 0.1 uM after 48 hrs by Western blot analysis (reference value: 0.17). In kind it is functional.
For assay [21], the target named is Mitogen-activated protein kinase; ERK1/ERK2 (Homo sapiens) (UniProt P27361+P28482). Briefly: Effect on ERK1/2 phosphorylation in human Bel7402/5-FU cells assessed as ratio of phosphorylated ERK1/2 to beta-actin level at 0.1 uM after 48 hrs by Western blot analysis (reference value: 0.59). In kind it is cell-based.
Sequence of Mitogen-activated protein kinase; ERK1/ERK2 (Homo sapiens) (P27361 whole entry, looked up): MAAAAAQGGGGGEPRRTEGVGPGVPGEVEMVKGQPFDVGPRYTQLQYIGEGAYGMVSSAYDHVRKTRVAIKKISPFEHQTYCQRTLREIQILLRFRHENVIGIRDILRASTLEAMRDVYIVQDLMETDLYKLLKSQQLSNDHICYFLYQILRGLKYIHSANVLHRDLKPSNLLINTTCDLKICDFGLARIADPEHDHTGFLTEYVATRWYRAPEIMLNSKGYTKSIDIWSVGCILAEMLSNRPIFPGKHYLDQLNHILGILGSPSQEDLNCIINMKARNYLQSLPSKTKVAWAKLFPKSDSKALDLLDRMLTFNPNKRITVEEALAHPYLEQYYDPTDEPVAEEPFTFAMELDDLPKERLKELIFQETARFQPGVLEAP
Sequence of Mitogen-activated protein kinase; ERK1/ERK2 (Homo sapiens) (P28482 whole entry, looked up): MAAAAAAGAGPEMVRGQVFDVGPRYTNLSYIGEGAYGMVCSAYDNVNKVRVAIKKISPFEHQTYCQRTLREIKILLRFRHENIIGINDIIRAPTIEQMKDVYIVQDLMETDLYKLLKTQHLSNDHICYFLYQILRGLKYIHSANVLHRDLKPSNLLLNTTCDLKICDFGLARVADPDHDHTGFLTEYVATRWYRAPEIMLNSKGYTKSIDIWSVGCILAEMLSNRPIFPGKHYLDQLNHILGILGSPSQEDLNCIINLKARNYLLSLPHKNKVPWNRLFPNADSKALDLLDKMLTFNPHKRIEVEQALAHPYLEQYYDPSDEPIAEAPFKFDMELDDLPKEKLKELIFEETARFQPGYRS
Assay [22] concerns Bel7402/5-FU. Briefly: Reduction in microtubule density in human Bel7402/5-FU cells at 0.1 uM after 24 to 48 hrs by DAPI staining based immunofluorescence microscopic method. In kind it is functional, cell-based.
Assay [23] has as its system Bel7402/5-FU. Briefly: Effect on COX1 expression in human Bel7402/5-FU cells assessed as ratio of COX1 to beta-actin level at 0.1 uM after 48 hrs by Western blot analysis (reference value: 0.48). In kind it is functional.
The test system of assay [24] is Bel7402/5-FU. Briefly: Induction of apoptosis in human Bel7402/5-FU cells at 0.1 uM after 24 hrs by Hoechst 33342 staining based fluorescent microscopic method. In kind it is functional, cell-based.
The subject of assay [25] is Bel7402/5-FU. Briefly: Effect on MRP1 expression in human Bel7402/5-FU cells assessed as ratio of MRP1 to beta-actin level at 0.1 uM after 48 hrs by Western blot analysis (reference value: 0.58). In kind it is functional.
Assay [26] deals with Bel7402/5-FU. Briefly: Effect on CDK2 expression in human Bel7402/5-FU cells assessed as ratio of CDK2 to beta-actin level at 0.1 uM after 48 hrs by Western blot analysis (reference value: 0.43). In kind it is functional.
In assay [27] the test system is Bel7402/5-FU. Briefly: Induction of apoptosis in human Bel7402/5-FU cells assessed as ratio of cleaved caspase-8 to beta-actin level at 0.1 uM after 48 hrs by Western blot analysis (reference value: 0.17). In kind it is functional.
In assay [28] the target is Signal transducer and activator of transcription 3 (Homo sapiens) (UniProt P40763). Briefly: Effect on STAT3 phosphorylation in human Bel7402/5-FU cells assessed as ratio of phosphorylated STAT3 to beta-actin level at 0.1 uM after 48 hrs by Western blot analysis (reference value: 0.3). In kind it is cell-based.
Sequence of Signal transducer and activator of transcription 3 (Homo sapiens) (P40763 whole entry): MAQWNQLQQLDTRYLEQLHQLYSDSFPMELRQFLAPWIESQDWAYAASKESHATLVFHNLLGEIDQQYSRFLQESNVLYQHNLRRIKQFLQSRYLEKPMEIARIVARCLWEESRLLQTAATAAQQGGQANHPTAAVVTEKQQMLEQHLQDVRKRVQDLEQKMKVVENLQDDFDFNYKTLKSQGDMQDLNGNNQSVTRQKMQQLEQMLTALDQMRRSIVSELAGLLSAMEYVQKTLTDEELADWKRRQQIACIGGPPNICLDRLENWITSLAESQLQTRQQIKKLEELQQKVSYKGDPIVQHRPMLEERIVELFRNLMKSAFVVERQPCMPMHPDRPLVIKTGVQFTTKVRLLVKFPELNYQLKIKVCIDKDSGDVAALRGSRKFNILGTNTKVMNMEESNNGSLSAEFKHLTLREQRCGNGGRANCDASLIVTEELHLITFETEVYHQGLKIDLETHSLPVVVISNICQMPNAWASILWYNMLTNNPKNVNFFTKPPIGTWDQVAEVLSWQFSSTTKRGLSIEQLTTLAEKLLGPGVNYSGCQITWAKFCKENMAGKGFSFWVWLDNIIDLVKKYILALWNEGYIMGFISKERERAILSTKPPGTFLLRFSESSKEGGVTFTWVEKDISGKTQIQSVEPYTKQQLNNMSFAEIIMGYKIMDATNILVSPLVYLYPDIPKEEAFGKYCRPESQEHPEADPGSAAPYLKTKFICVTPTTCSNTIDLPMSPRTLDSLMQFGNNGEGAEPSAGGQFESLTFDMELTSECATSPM
The test system of assay [29] is Bel7402/5-FU. Briefly: Effect on P-gp expression in human Bel7402/5-FU cells assessed as ratio of P-gp to beta-actin level at 0.1 uM after 48 hrs by Western blot analysis (reference value: 0.59). In kind it is functional.
In assay [30] the test system is Bel7402/5-FU. Briefly: Induction of apoptosis in human Bel7402/5-FU cells assessed as morphological changes at 0.1 uM after 24 hrs by Hoechst 33342 staining based fluorescent microscopic method. In kind it is functional, cell-based.
Assay [31] concerns Bel7402/5-FU. Briefly: Effect on cyclinA expression in human Bel7402/5-FU cells assessed as ratio of cyclinA to beta-actin level at 0.1 uM after 48 hrs by Western blot analysis (reference value: 0.39). In kind it is functional.
Assay [32] relates to Bel7402/5-FU. Briefly: Effect on CDK1 expression in human Bel7402/5-FU cells assessed as ratio of CDK1 to beta-actin level at 0.1 uM after 48 hrs by Western blot analysis (reference value: 0.33). In kind it is functional.
The subject of assay [33] is Bel7402/5-FU. Briefly: Effect on VEGFR2 expression in human Bel7402/5-FU cells assessed as ratio of VEGFR2 to beta-actin level at 0.1 uM after 48 hrs by Western blot analysis (reference value: 0.25). In kind it is functional.
The subject of assay [34] is Bel7402/5-FU. Briefly: Effect on MMP2 expression in human Bel7402/5-FU cells assessed as ratio of MMP2 to beta-actin level at 0.1 uM after 48 hrs by Western blot analysis (reference value: 0.3). In kind it is functional.
Assay [35] relates to Bel7402/5-FU. Briefly: Induction of apoptosis in human Bel7402/5-FU cells assessed as necrotic cells at 0.1 uM after 48 hrs by Annexin V-APC/7-AAD staining based flow cytometry (reference value: 0.58%). In kind it is functional.

The term IC50 denotes the concentration at which inhibition is half-maximal. A lower IC50 goes with greater potency. For the compound `CC(C)Cc1ccc(C(C)C(=O)O)cc1` (stereo not given) [IBUPROFEN], the IC50 in the assay with L02, in the assay on Bel-7402 and in the assay on Bel7402/5-FU [1] was greater than 100 µM each time.
As to `CC(=O)Oc1ccccc1C(=O)O` [ASPIRIN], the IC50 in the assay on L02, in the assay on Bel-7402 and with Bel7402/5-FU [1] was greater than 100 µM each time.
As for `COc1ccc2c(c1)c(CC(=O)O)c(C)n2C(=O)c1ccc(Cl)cc1` [INDOMETHACIN], the IC50 with L02, with Bel-7402 and with Bel7402/5-FU [1] was greater than 100 µM each time.
As for `COc1cc([C@@H]2c3cc4c(cc3[C@H](OC(=O)c3ccccc3OC(C)=O)[C@H]3COC(=O)[C@H]23)OCO4)cc(OC)c1OC`, the Activity in the assay on Bel7402/5-FU [2] is given as 17.03%; in the assay with Bel7402/5-FU [3], 24.2%; in the assay on Bel7402/5-FU [11], 5.45%; in the assay on Bel7402/5-FU [15] it was 24.69%; in the assay with Bel7402/5-FU [17], 58.28%; with Bel7402/5-FU [19] it was 65.12%. In the assay with Bel7402/5-FU [35], the Activity was determined as 5.23%. Further, the Ratio with Bel7402/5-FU [4] amounted to 0.09; in the assay on Bel7402/5-FU [6], 0.16; in the assay with Bel7402/5-FU [7] it was 0.47; in the assay on Bel7402/5-FU [9], 0.14; in the assay on Bel7402/5-FU [12], 0.31; with Bel7402/5-FU [16], 0.53. In addition, the Ratio in assay [18] is 0.29; in the assay on Bel7402/5-FU [20], 0.57; in assay [21], 0.19; in the assay with Bel7402/5-FU [23], 0.31; in the assay on Bel7402/5-FU [25], 0.31; in the assay with Bel7402/5-FU [26], 0.39. The Ratio worked out at 0.57 in the assay on Bel7402/5-FU [27]; 0.17 in assay [28]; 0.52 in the assay on Bel7402/5-FU [29]; 0.2 in the assay on Bel7402/5-FU [31]; 0.28 with Bel7402/5-FU [32]; 0.1 in the assay on Bel7402/5-FU [33]. The Ratio in the assay with Bel7402/5-FU [34] is on record as 0.16. For the same compound, the result with Bel7402/5-FU [5], in the assay with Bel7402/5-FU [10], in the assay with Bel7402/5-FU [13], in the assay with Bel7402/5-FU [14], with Bel7402/5-FU [22] and in the assay with Bel7402/5-FU [24] was Active. Also, the outcome in the assay on Bel7402/5-FU [30] was Active. In assay [8], the “Ratio IC50” value was 0.32. Besides, the IC50 in the assay with L02 came out at 0.09 µM; in the assay with Bel-7402 it was 0.199 µM; in the assay with Bel7402/5-FU [1] it was 0.065 µM.
As to `O=c1[nH]cc(F)c(=O)[nH]1` [FLUOROURACIL], the “Ratio IC50” value in [8] is greater than 16.83. Also, the IC50 in the assay with L02 is 32.5 µM; in the assay with Bel-7402, 5.94 µM; with Bel7402/5-FU [1], greater than 100 µM.

These data come from ChEMBL document CHEMBL4038272, “Synthesis and biological evaluation of novel podophyllotoxin-NSAIDs conjugates as multifunctional anti-MDR agents against resistant human hepatocellular carcinoma Bel-7402/5-FU cells” (Eur J Med Chem, 2017).
